Assay results taken from US5143911A, “Antibiotic C-3 di-hydroxyphenyl substituted cephalosporin compounds, compositions and method of use thereof” (Bristol-Myers Squibb Company, priority 1990, dated 1992).
In brackets after ≈: the same amount, converted by molar mass.

Assays:
[1] = test system: B. fragilis A 22021; experiment: In vitro activity against anaerobes (MIC), two-fold serial agar dilution, GAM agar; assay type: cell-based; conditions: Bacteroides fragilis, A22021, Gn, Beta-Lactamase(-)
[2] = test system: B. fragilis A 22695; experiment: as above; assay type: cell-based; conditions: Bacteroides fragilis, A22695, Gn, Beta-Lactamase(+)
[3] = test system: P. aeruginosa IPM-8; conditions: Pseudomonas aeruginosa, IPM8, 18 h, pH 7.2
[4] = test system: P. aeruginosa KKA 19; conditions: Pseudomonas aeruginosa, KKA19, 18 h, pH 7.2
[5] = test system: P. aeruginosa A20599; assay type: cell-based; conditions: Pseudomonas aeruginosa, pH 7.2, 32° C. 18 hr, 10^6 cells/ml
[6] = test system: S. marcescens IPM-15; conditions: Serratia marcescens, IPM15, 18 h, pH 7.2
[7] = test system: PCresistant S. aureus; experiment: MIC, two-fold serial agar dilution, Mueller-Hinton agar (geometric mean, group Gp-Ib); assay type: cell-based; conditions: Staphylococcus aureus, penicillin-resistant S. aureus, 5 strains
Protocol: (§1) For a primary evaluation of some representative compounds of this invention, minimum inhibitory concentrations (MIC's) were determined against 32 strains of test organisms by two-fold serial agar dilution method in Mueller-Hinton agar.
GpIb: PCresistant S. aureus

[8] = test system: C. terrigena IFO 12685; conditions: 18 h, pH 7.2
[9] = test system: B. fragilis A 21916; experiment: In vitro activity against anaerobes (MIC), two-fold serial agar dilution, GAM agar; assay type: cell-based; conditions: Bacteroides fragilis, A21916, Gn, Beta-Lactamase(-)
[10] = test system: S. aureus 4-1015 (MRSA); conditions: Staphylococcus aureus, 18 h, pH 7.2
[11] = test system: E. coli Juhl A15119; conditions: Escherichia coli, JUHLA15119, 18 h, pH 7.2
[12] = test system: B. fragilis CUH-108; experiment: In vitro activity against anaerobes (MIC), two-fold serial agar dilution, GAM agar; assay type: cell-based; conditions: Bacteroides fragilis, CUH108, Gn, Beta-Lactamase(+), Clindamycin-resistant
Protocol: In vitro activity against anaerobic bacteria was determined on eight strains of B. fragilis by two-fold serial agar dilution method in GAM agar.

[13] = test system: E. coli 255; conditions: Escherichia coli, 255, 18 h, pH 7.2
[14] = test system: P. aeruginosa 9843A; experiment: MIC against the infecting organism (Table 2); conditions: Pseudomonas aeruginosa
[15] = test system: S. aureus 209P; conditions: Staphylococcus aureus, 18 h, pH 7.2
[16] = test system: X. maltophilia GN 12873; conditions: Stenotrophomonas maltophilia, GN12873, 18 h, pH 7.2
[17] = test system: S. aureus Smith; conditions: Staphylococcus aureus, in Mus musculus, im, read-out: PD50
[18] = test system: E. cloacae IPM-12; conditions: Enterobacter cloacae, IPM12, 18 h, pH 7.2
[19] = test system: Ps. aeruginosa (7); experiment: MIC, two-fold serial agar dilution, Mueller-Hinton agar (geometric mean, group Gn-III); assay type: cell-based; conditions: Pseudomonas aeruginosa, 7 strains
Protocol: as §1
GnIII: Ps. aeruginosa (7)

[20] = test system: C. freundii GN 7391; conditions: Citrobacter freundii, GN7391, 18 h, pH 7.2
[21] = test system: B. fragilis A 22693; experiment: In vitro activity against anaerobes (MIC), two-fold serial agar dilution, GAM agar; assay type: cell-based; conditions: Bacteroides fragilis, A22693, Gn, Beta-Lactamase(-)
[22] = test system: S. aureus Smith; conditions: Staphylococcus aureus, 18 h, pH 7.2
[23] = test system: S. aureus IPM-24 (MRSA); conditions: Staphylococcus aureus, 18 h, pH 7.2
[24] = test system: P. aeruginosa IPM-9; conditions: Pseudomonas aeruginosa, IPM9, 18 h, pH 7.2
[25] = test system: E. faecalis A9808; conditions: Enterococcus faecalis, A9808, 18 h, pH 7.2
[26] = test system: X. maltophilia No. 661; conditions: Stenotrophomonas maltophilia, NO.661, 18 h, pH 7.2
[27] = test system: B. fragilis A 22534; experiment: In vitro activity against anaerobes (MIC), two-fold serial agar dilution, GAM agar; assay type: cell-based; conditions: Bacteroides fragilis, A22534, Gn, Beta-Lactamase(+)
[28] = test system: P. vulgaris IPM-13; assay type: cell-based; conditions: Proteus vulgaris, IPM13, pH 7.2, 32° C. 18 hr, 10^6 cells/ml
[29] = test system: P. mirabilis IFO-2849; conditions: Proteus mirabilis, IFO2849, 18 h, pH 7.2
[30] = test system: B. fragilis A 22053; experiment: In vitro activity against anaerobes (MIC), two-fold serial agar dilution, GAM agar; assay type: cell-based; conditions: Bacteroides fragilis, A22053, Gn, Beta-Lactamase(-)
[31] = test system: C. perfringens A9635; experiment: microbe, parasite or virus in culture; assay type: cell-based; conditions: Clostridium perfringens
[32] = test system: B. fragilis A 22533; experiment: In vitro activity against anaerobes (MIC), two-fold serial agar dilution, GAM agar; assay type: cell-based; conditions: Bacteroides fragilis, A22533, Gn, Beta-Lactamase(+)
[33] = test system: E. coli Juhl; conditions: Escherichia coli, in Mus musculus, im, read-out: PD50

CO/N=C(\C(=O)NC1C(=O)N2C(C(=O)O)=C(/C=C/COC(=O)c3ccc(O)c(O)c3)CS[C@H]12)c1csc(N)n1 (stereo partly drawn) [Ia, 7-[(Z)-2-(2-Aminothiazol-4-yl)-2-methoxyiminoacetamido]-3-[(E)-3-(3,4-dihydroxybenzoyloxy)-1-propen-1-yl]-3-cephem-4-carboxylic acid]
MIC [1]: 0.2 µg/mL (≈ 0.347 µM) | MIC [2]: 12.5 µg/mL (≈ 21.7 µM) | MIC [3]: 6.3 µg/mL (≈ 10.9 µM) | MIC [4]: 50 µg/mL (≈ 86.9 µM) | MIC [5]: 3.1 µg/mL (≈ 5.39 µM) | MIC [6]: > 100 µg/mL | MIC [7]: 1.6 µg/mL (≈ 2.78 µM) | MIC [8]: 0.8 µg/mL (≈ 1.39 µM) | MIC [9]: 1.6 µg/mL (≈ 2.78 µM) | MIC [10]: 12.5 µg/mL (≈ 21.7 µM) | MIC [11]: 0.05 µg/mL (≈ 0.0869 µM) | MIC [12]: 25 µg/mL (≈ 43.4 µM) | MIC [13]: 0.2 µg/mL (≈ 0.347 µM) | MIC [14]: 3.1 µg/mL (≈ 5.39 µM) | MIC [15]: 3.1 µg/mL (≈ 5.39 µM) | MIC [16]: 50 µg/mL (≈ 86.9 µM) | ED50 [17]: 0.4 mg/kg | MIC [18]: > 100 µg/mL | MIC [19]: 1.9 µg/mL (≈ 3.3 µM) | MIC [20]: 12.5 µg/mL (≈ 21.7 µM) | MIC [21]: 0.8 µg/mL (≈ 1.39 µM) | MIC [22]: 1.6 µg/mL (≈ 2.78 µM) | MIC [23]: > 100 µg/mL | MIC [24]: 6.3 µg/mL (≈ 10.9 µM) | MIC [25]: 100 µg/mL (≈ 174 µM) | MIC [26]: 12.5 µg/mL (≈ 21.7 µM) | MIC [27]: > 50 µg/mL | MIC [28]: > 100 µg/mL | MIC [29]: 0.05 µg/mL (≈ 0.0869 µM) | MIC [30]: 0.8 µg/mL (≈ 1.39 µM) | MIC [31]: 0.2 µg/mL (≈ 0.347 µM) | MIC [32]: > 50 µg/mL | ED50 [33]: 0.05 mg/kg
